According to US10421718B2, “EBNA1 inhibitors and their method of use” (priority 2013, dated 2019):

Molecular target: T1, His-EBNA1 (DNA binding domain of EBNA1, amino acids 459-607) (Epstein-Barr virus, UniProt P03211)
T1 construct: made in house; host or cells: E. coli
Test: Inhibition of 5′-biotin-oPL4624 binding to His-EBNA1 using Alpha Screen technology
Details: Alpha Screen Activity (IC50, inhibition of 5′-biotin-oPL4624 binding to His-EBNA1), 15 nM His-EBNA1, 0.2 nM bt-oPL4624, 2 hr room temperature
Method in brief: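 AlphaScreen signal (680 nm ex, 570 nm em) after a 2-h room-temperature incubation, normalized to no-EBNA1 (100% inhibition) and EBNA1 (0%) values and fit to a one-site curve. Final conditions: 15 nM His-EBNA1 (aa 459-607), 0.2 nM bt-oPL4624, Tris pH 7.2 buffer with 160 mM NaCl, compound 3.2 nM to 100 μM.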

T1 sequence (P03211 459-607): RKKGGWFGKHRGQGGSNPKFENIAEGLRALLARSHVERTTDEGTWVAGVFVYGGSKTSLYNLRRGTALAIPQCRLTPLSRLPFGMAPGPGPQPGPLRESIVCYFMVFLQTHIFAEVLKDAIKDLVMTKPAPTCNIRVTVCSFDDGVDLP

Row | SMILES | IC50 [µM]
1 | CC(=O)Nc1cccc(C#Cc2cccc(C(=O)O)c2-n2c(C)ccc2C)c1 [Entry 198, 3-(3-acetylamino-phenylethynyl)-2-(2,5-dimethyl-pyrrol-1-yl)-benzoic acid] | 10 to 100
2 | Cc1ccc(C)n1-c1c(C#CC2CC2)cccc1C(=O)O [Entry 199, 3-cyclopropylethynyl-2-(2,5-dimethyl-pyrrol-1-yl)-benzoic acid] | 1 to 10
3 | COc1cccc(C#Cc2cccc(C(=O)O)c2-n2c(C)ccc2C)c1 [Entry 200, 2-(2,5-dimethyl-pyrrol-1-yl)-3-(3-methoxy-phenylethynyl)-benzoic acid] | 1 to 10
4 | O=C(O)c1cccc(C#Cc2ccccc2)c1-c1ccc2cn[nH]c2c1 [Entry 201, 2-(1H-indazol-6-yl)-3-phenylethynyl-benzoic acid] | 10 to 100
5 | O=C(O)c1cccc(C#Cc2ccccc2)c1-c1ccc2c(c1)OCO2 [Entry 202, 2-benzo[1,3]dioxol-5-yl-3-phenylethynyl-benzoic acid] | 10 to 100
6 | O=C(O)c1cccc(C#Cc2ccccc2)c1-c1ccc2cnccc2c1 [Entry 203, 2-isoquinolin-6-yl-3-phenylethynyl-benzoic acid] | 10 to 100
7 | O=C(O)c1cccc(C#Cc2ccccc2)c1-c1cc2ccccc2o1 [Entry 204, 2-benzofuran-2-yl-3-phenylethynyl-benzoic acid] | 1 to 10
8 | O=C(O)c1cccc(C#Cc2ccccc2)c1-c1cccc2cccnc12 [Entry 205, 3-phenylethynyl-2-quinolin-8-yl-benzoic acid] | 10 to 100
9 | Nc1ncc(-c2c(C#Cc3ccccc3)cccc2C(=O)O)cn1 [Entry 206, 2-(2-amino-pyrimidin-5-yl)-3-phenylethynyl-benzoic acid] | 100 to 1000
10 | CN(C)Cc1ccc(-c2c(C#Cc3ccccc3)cccc2C(=O)O)cc1 [Entry 207, 4′-dimethylaminomethyl-6-phenylethynyl-biphenyl-2-carboxylic acid] | 100 to 1000
11 | Nc1ccc(C#Cc2cccc(C(=O)O)c2-c2ccc3cc[nH]c3c2)cc1 [Entry 208, 3-(4-amino-phenylethynyl)-2-(1H-indol-6-yl)-benzoic acid] | 1 to 10
12 | O=C(O)c1ccc(C#Cc2cccc(C(=O)O)c2-c2ccc3cc[nH]c3c2)cc1 [Entry 209, 3-(4-carboxy-phenylethynyl)-2-(1H-indol-6-yl)-benzoic acid] | < 1
13 | COc1ccc(C#Cc2cccc(C(=O)O)c2-c2ccc3cc[nH]c3c2)cc1 [Entry 210, 2-(1H-indol-6-yl)-3-(4-methoxy-phenylethynyl)-benzoic acid] | 1 to 10
14 | NC(=O)c1ccc(C#Cc2cccc(C(=O)O)c2-c2ccc3cc[nH]c3c2)cc1 [Entry 211, 3-(4-carbamoyl-phenylethynyl)-2-(1H-indol-6-yl)-benzoic acid] | 1 to 10
15 | O=C(O)c1cccc(C#Cc2ccc(C(=O)N3CCNCC3)cc2)c1-c1ccc2cc[nH]c2c1 [Entry 212, 2-(1H-indol-6-yl)-3-[4-(piperazine-1-carbonyl)-phenylethynyl]-benzoic acid] | 1 to 10
16 | CC(=O)Nc1ccc(C#Cc2cccc(C(=O)O)c2-c2ccc3cc[nH]c3c2)cc1 [Entry 213, 3-(4-acetylamino-phenylethynyl)-2-(1H-indol-6-yl)-benzoic acid] | 10 to 100
17 | O=C(Nc1ccc(C#Cc2cccc(C(=O)O)c2-c2ccc3cc[nH]c3c2)cc1)c1cccnc1 [Entry 214, 2-(1H-indol-6-yl)-3-{4-[(pyridine-3-carbonyl)-amino]phenylethynyl}-benzoic acid] | < 1
18 | CS(=O)(=O)Nc1ccc(C#Cc2cccc(C(=O)O)c2-c2ccc3cc[nH]c3c2)cc1 [Entry 215, 2-(1H-indol-6-yl)-3-(4-methanesulfonylamino-phenylethynyl)-benzoic acid] | 1 to 10
19 | O=C(O)c1cccc(C#Cc2ccc(NS(=O)(=O)c3cccs3)cc2)c1-c1ccc2cc[nH]c2c1 [Entry 216, 2-(1H-indol-6-yl)-3-[4-(thiophene-2-sulfonylamino)-phenylethynyl]-benzoic acid] | 1 to 10
20 | COC(=O)c1c[nH]c2cc(-c3c(C#Cc4cscn4)cccc3C(=O)O)ccc12 [Entry 217, 2-(3-(Methoxycarbonyl)-1H-indol-6-yl)-3-(thiazol-4-ylethynyl)benzoic acid] | 1 to 10
21 | O=C(O)c1cccc(C#Cc2cscn2)c1-c1ccc2cc[nH]c2c1 [Entry 218, 2-(1H-indol-6-yl)-3-(thiazol-4-ylethynyl)benzoic acid] | 10 to 100
22 | Cn1cc(-c2c(C#Cc3cscn3)cccc2C(=O)O)cn1 [Entry 219, 2-(1-methyl-1H-pyrazol-4-yl)-3-(thiazol-4-ylethynyl)benzoic acid] | 10 to 100
23 | Cn1cc(-c2c(C#Cc3cccc(O)c3)cccc2C(=O)O)cn1 [Entry 220, 3-((3-hydroxyphenyl)ethynyl)-2-(1-methyl-1H-pyrazol-4-yl)benzoic acid] | 1 to 10

Row | SMILES | IC50 [µM]
24 | O=C(O)c1cccc(C#Cc2cccc(O)c2)c1-c1ccc2c(Cl)c[nH]c2c1 [Entry 221, 2-(3-chloro-1H-indol-6-yl)-3-((3-hydroxyphenyl)ethynyl)benzoic acid] | 1 to 10
25 | O=C(O)c1cccc(C#Cc2cccc(O)c2)c1-c1ccc2cn[nH]c2c1 [Entry 222, 3-((3-hydroxyphenyl)ethynyl)-2-(1H-indazol-6-yl)benzoic acid] | 1 to 10
26 | CC(=O)NCCc1c[nH]c2cc(-c3c(C#Cc4cccc(O)c4)cccc3C(=O)O)ccc12 [Entry 223, 2-(3-(2-acetamidoethyl)-1H-indol-6-yl)-3-((3-hydroxyphenyl)ethynyl)benzoic acid] | 1 to 10
27 | CN(C)S(=O)(=O)c1cccc(C#Cc2cccc(C(=O)O)c2F)c1 [Entry 224] | 10 to 100
28 | O=C(O)c1cccc(C#Cc2ccc(OC3CCOCC3)cc2)c1-c1ccc2cc[nH]c2c1 [Entry 225, 2-(1H-indol-6-yl)-3-((4-(tetrahydro-2H-pyran-4-yloxy)phenyl)ethynyl)benzoic acid] | < 1
29 | O=C(O)c1cccc(C#Cc2ccc(N3CCOCC3)cc2)c1-c1ccc2cc[nH]c2c1 [Entry 226, 2-(1H-indol-6-yl)-3-((4-morpholinophenyl)ethynyl)benzoic acid] | 10 to 100
30 | NC(=O)c1cccc(C#Cc2cccc(C(=O)O)c2-c2ccc3cc[nH]c3c2)c1 [Entry 227, 3-((3-carbamoylphenyl)ethynyl)-2-(1H-indol-6-yl)benzoic acid] | 10 to 100
31 | O=C(O)c1cccc(C#Cc2ccc(F)cc2)c1-c1ccc2cc[nH]c2c1 [Entry 228, 3-((4-Fluorophenyl)ethynyl)-2-(1H-indol-6-yl)benzoic acid] | 1 to 10
32 | O=C(O)c1cccc(C#Cc2ccc(F)cc2F)c1-c1ccc2cc[nH]c2c1 [Entry 229, 3-((2,4-Difluorophenyl)ethynyl)-2-(1H-indol-6-yl)benzoic acid] | 1 to 10
33 | CC(=O)Nc1cccc(C#Cc2cccc(C(=O)O)c2-c2ccc3cc[nH]c3c2)c1 [Entry 230, 3-((3-Acetamidophenyl)ethynyl)-2-(1H-indol-6-yl)benzoic acid] | < 1
34 | O=C(Nc1cccc(C#Cc2cccc(C(=O)O)c2-c2ccc3cc[nH]c3c2)c1)c1cccnc1 [Entry 231, 2-(1H-indol-6-yl)-3-((3-(nicotinamido)phenyl)ethynyl)benzoic acid] | 1 to 10
35 | O=C(O)c1cccc(C#Cc2cccc(NS(=O)(=O)c3ccc(F)c(Cl)c3)c2)c1-c1ccc2cc[nH]c2c1 [Entry 232, 3-((3-(3-chloro-4-fluorophenylsulfonamido)phenyl)ethynyl)-2-(1H-indol-6-yl)benzoic acid] | < 1
36 | Nc1cccc(C#Cc2cccc(C(=O)O)c2-c2ccc3cc[nH]c3c2)c1 [Entry 233, 3-((3-aminophenyl)ethynyl)-2-(1H-indol-6-yl)benzoic acid] | < 1
37 | CS(=O)(=O)Nc1cccc(C#Cc2cccc(C(=O)O)c2-c2ccc3cc[nH]c3c2)c1 [Entry 234, 2-(1H-indol-6-yl)-3-((3-(methylsulfonamido)phenyl)ethynyl)benzoic acid] | 1 to 10
38 | O=C(O)c1cccc(C#Cc2cccc(NS(=O)(=O)c3cccs3)c2)c1-c1ccc2cc[nH]c2c1 [Entry 235, 2-(1H-indol-6-yl)-3-((3-(thiophene-2-sulfonamido)phenyl)ethynyl)benzoic acid] | < 1
39 | CC(=O)Nc1cc(F)cc(C#Cc2cccc(C(=O)O)c2-c2ccc3cc[nH]c3c2)c1 [Entry 236, 3-((3-acetamido-5-fluorophenyl)ethynyl)-2-(1H-indol-6-yl)benzoic acid] | < 1
40 | O=C(O)c1cccc(C#Cc2ccccc2)c1-c1ccc2c(c1)NCC2 [Entry 237, 2-(indolin-6-yl)-3-(phenylethynyl)benzoic acid] | 10 to 100
41 | O=C(O)c1cccc(C#Cc2cccc(O)c2)c1-c1ccc2c(c1)NCC2 [Entry 238, 3-((3-hydroxyphenyl)ethynyl)-2-(indolin-6-yl)benzoic acid] | 1 to 10
42 | Nc1cccc(C#Cc2cccc(C(=O)O)c2-c2ccc3cc[nH]c3c2)n1 [Entry 239, 3-((6-aminopyridin-2-yl)ethynyl)-2-(1H-indol-6-yl)benzoic acid] | 1 to 10
43 | Nc1cc(C#Cc2cccc(C(=O)O)c2-c2ccc3cc[nH]c3c2)ccn1 [Entry 240, 3-((2-aminopyridin-4-yl)ethynyl)-2-(1H-indol-6-yl)benzoic acid] | 1 to 10
44 | COc1cncc(-c2c(C#Cc3cccc(O)c3)cccc2C(=O)O)c1 [Entry 241, 3-((3-hydroxyphenyl)ethynyl)-2-(5-methoxypyridin-3-yl)benzoic acid] | 10 to 100
45 | O=C(O)c1cccc(C#Cc2cccc(O)c2)c1-c1ccc2c(c1)OCO2 [Entry 242, 2-(benzo[d][1,3]dioxol-5-yl)-3-((3-hydroxyphenyl)ethynyl)benzoic acid] | 10 to 100
46 | O=C(O)c1cccc(C#Cc2cccc(O)c2)c1-c1cncnc1 [Entry 243, 3-((3-hydroxyphenyl)ethynyl)-2-(pyrimidin-5-yl)benzoic acid] | 10 to 100
